Test: Inhibition of yeast alpha glucosidase in phosphate buffer after 0.5 hrs by spectrophotometry
Design: species or system Saccharomyces

Structure (SMILES)	IC50 [µM]
O=c1c2ccccc2oc2cccc(O)c12	177
COc1cc(O)c2c(=O)c3ccccc3oc2c1	173
Oc1cc(O)c2c(c1)Oc1cc3ccccc3cc1C2	27.8
COc1cc(O)c2c(=O)c3cc4ccccc4cc3oc2c1	31.3
Oc1cc(O)c2c(c1)Oc1ccc3ccccc3c1C2	34.9
O=c1c2cc3ccccc3cc2oc2cc(O)cc(O)c12	9.3
O=c1c2cc3cc(O)ccc3cc2oc2cc(O)cc(O)c12	5.8
O=c1c2cc3cccc(O)c3cc2oc2cc(O)cc(O)c12	8
O=c1c2ccccc2oc2cc(OCC3CO3)cc(O)c12 (stereo not drawn)	66.6
O=c1c2cc(O)ccc2oc2cc(O)cc(O)c12	14.7
O=c1c2cc3ccccc3cc2oc2c([N+](=O)[O-])c(O)cc(O)c12	20.1
O=c1c2c(O)cc(O)cc2oc2ccc3ccccc3c12	39.9
O=c1c2ccccc2oc2cc(O)cc(O)c12	161
CCCCCOc1cc(O)c2c(=O)c3ccccc3oc2c1	121
O=c1c2ccc(O)cc2oc2cccc(O)c12	131
Nc1c(O)cc(O)c2c(=O)c3ccccc3oc12	102
CC(=O)Oc1cc(OC(C)=O)c2c(=O)c3ccccc3oc2c1	31.9
O=c1c2ccccc2oc2cc(OCC3CCCO3)cc(O)c12 (stereo not drawn)	53
O=c1c2ccc(OCCCN3CCCCC3)cc2oc2cccc(O)c12	133
CCCCCCCOc1cc(O)c2c(=O)c3ccccc3oc2c1	114
CCCCCCCCOc1cc(O)c2c(=O)c3ccccc3oc2c1	124
O=c1c2ccc(O)cc2oc2cc(O)cc(O)c12	41.5

Structure (SMILES)	IC50 [µM]
CC(=O)Oc1cc(OC(C)=O)c2c(=O)c3cc(OC(C)=O)ccc3oc2c1	46.5
CCCCCCCCCCOc1cc(O)c2c(=O)c3ccccc3oc2c1	116
O=c1c2ccccc2oc2cc(OCc3ccccc3)cc(O)c12	98.2
CCCCOc1cc(O)c2c(=O)c3ccccc3oc2c1	130
CCOc1cc(O)c2c(=O)c3ccccc3oc2c1	111
O=c1c2c(O)cccc2oc2cc(O)cc(O)c12	81.8
CC(=O)Oc1cc(OC(C)=O)c2c(=O)c3c(OC(C)=O)cc(OC(C)=O)cc3oc2c1	49.7
O=c1c2ccccc2oc2c([N+](=O)[O-])c(O)cc(O)c12	235
O=c1c2cc3ccccc3cc2oc2cc(OCCCBr)cc(O)c12	29.7
Nc1c(O)cc2oc3cc4ccccc4cc3c(=O)c2c1O	6.3
O=c1c2ccccc2oc2cc(OCCCBr)cc(O)c12	147
O=c1c2ccccc2oc2c3c(cc(O)c12)OCCC3	198
O=c1c2cc3ccccc3cc2oc2cc(O)c([N+](=O)[O-])c(O)c12	5.9
O=c1c2c(O)cccc2oc2cccc(O)c12	91.5
O=c1c2ccc(OCC3CO3)cc2oc2cccc(O)c12 (stereo not drawn)	63.5
O=c1c2c(O)cc(O)cc2oc2cc(O)cc(O)c12	17.1
CC(=O)Oc1ccc2c(=O)c3c(OC(C)=O)cccc3oc2c1	139
O=c1c2ccccc2oc2cc(OCCCN3CCN(c4cccc(Cl)c4)CC3)cc(O)c12	61.8
O=c1c2ccccc2oc2cc(OCCCN3CCCCC3)cc(O)c12	115
O=c1c2cc3ccccc3cc2oc2c3c(cc(O)c12)OCCC3	67.3
Nc1c(O)cc(O)c2c(=O)c3cc4ccccc4cc3oc12	8.3

Reference: ChEMBL document CHEMBL1155888, “Synthesis, inhibitory activities, and QSAR study of xanthone derivatives as alpha-glucosidase inhibitors” (Bioorg Med Chem, 2008)
